Earlier results, collected in US8968801B1, “Supplement composition for supporting DNA repair and method of use” (Cellhealth Technologies Ltd., priority 2011, dated 2015).

System: ras-transformed human mammary epithelial cells
Settings: eupatilin derived from artemisia plants (Kim D H, et al. 2004)

In the case of `COc1ccc(-c2cc(=O)c3c(O)c(OC)c(O)cc3o2)cc1OC` [eupatilin], the cell cycle arrest is listed as “induces cell cycle arrest”.
